This passage reports IC50 results from US9133204B2, “5-membered heterocyclic amides and related compounds” (H. Lundbeck A/S, priority 2007, dated 2015).

SMILES strings stand for the structures.

What is called IC50 is the midpoint of a concentration-inhibition curve.

In this assay the target is T1, P2X7 receptor (Homo sapiens, UniProt Q99572).
T1 construct: host or cells: SH-SY5Y
T1 sequence (Q99572 1-595): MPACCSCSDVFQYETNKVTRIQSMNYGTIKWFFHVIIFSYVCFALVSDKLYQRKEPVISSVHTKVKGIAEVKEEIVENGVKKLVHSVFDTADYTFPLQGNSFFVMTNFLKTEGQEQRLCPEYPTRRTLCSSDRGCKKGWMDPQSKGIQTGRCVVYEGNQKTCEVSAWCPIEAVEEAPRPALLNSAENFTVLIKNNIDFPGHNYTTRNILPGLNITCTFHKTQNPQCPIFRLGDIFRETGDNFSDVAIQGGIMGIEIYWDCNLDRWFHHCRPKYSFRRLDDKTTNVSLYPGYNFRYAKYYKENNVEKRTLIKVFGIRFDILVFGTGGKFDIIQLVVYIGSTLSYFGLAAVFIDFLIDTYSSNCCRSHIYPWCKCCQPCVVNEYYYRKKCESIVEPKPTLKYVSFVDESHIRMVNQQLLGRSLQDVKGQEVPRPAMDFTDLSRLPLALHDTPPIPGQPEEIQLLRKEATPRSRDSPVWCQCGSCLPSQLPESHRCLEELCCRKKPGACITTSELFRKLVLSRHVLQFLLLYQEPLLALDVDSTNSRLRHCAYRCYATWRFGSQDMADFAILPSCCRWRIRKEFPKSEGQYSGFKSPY
Nature of the assay: High throughput P2X7 calcium mobilization assay (Example 4A). Conditions: SH-SY5Y cells; 50% decrease in fluorescence response of cells exposed to 80 μM BzATP; Table I. It is filed as cell-based. The procedure, abridged:
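SH-SY5Y cells loaded with 2.3 μM Fluo-4 AM for 1 h at 37 °C, then preincubated 1 h at room temperature with test compound (final 1–2500 nM) in low-sodium sucrose buffer, pH 7.4. Antagonism measured against 80 μM BzATP (about EC50) as peak FLIPR calcium fluorescence over 2 min, corrected by no-agonist background.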
A general note: A change in cytosolic calcium serves as a functional read-out for many receptors and channels.
Regarding `Nc1nc(-n2cc(C(=O)NCC3(c4ccc(Cl)cc4)CCC3)c(C(F)(F)F)n2)ncc1F` [Compound 167, 1-(4-amino-5-fluoropyrimidin-2-yl)-N-{[1-(4-chlorophenyl)cyclobutyl]methyl}-3-(trifluoromethyl)-1H-pyrazole-4-carboxamide], the IC50 is not above 2000 nM.

`COc1ccc(C2(CNC(=O)c3cn(-c4ncc(F)c(N)n4)nc3C(F)(F)F)CCCCC2)cc1` [Compound 168, 1-(4-amino-5-fluoropyrimidin-2-yl)-N-{[1-(4-methoxyphenyl)cyclohexyl]methyl}-3-(trifluoromethyl)-1H-pyrazole-4-carboxamide]: the half-maximal inhibitory concentration (IC50) was not above 2000 nM.

For `Nc1nc(-n2cc(C(=O)NCC(O)C34CC5CC(CC(C5)C3)C4)c(C(F)(F)F)n2)ncc1F` (stereo not shown) [Compound 169, N-(2-adamantan-1-yl-2-hydroxyethyl)-1-(4-amino-5-fluoropyrimidin-2-yl)-3-(trifluoromethyl)-1H-pyrazole-4-carboxamide], the half-maximal inhibitory concentration (IC50) was not above 2000 nM.

Consider `Cc1cnc(-n2cc(C(=O)NCC3(c4ccc(C(F)(F)F)cc4)CCCCC3)c(C)n2)nc1N` [Compound 170, 1-(4-amino-5-methylpyrimidin-2-yl)-3-methyl-N-({1-[4-(trifluoromethyl)phenyl]cyclohexyl}methyl)-1H-pyrazole-4-carboxamide], for which the 50% inhibitory concentration (IC50) was not above 2000 nM.

`Cc1cnc(-n2cc(C(=O)NCC(CC(C)C)c3ccc(C(F)(F)F)cc3)c(C(F)(F)F)n2)nc1N` (stereo not shown) [Compound 171, 1-(4-amino-5-methylpyrimidin-2-yl)-N-{4-methyl-2-[4-(trifluoromethyl)phenyl]pentyl}-3-(trifluoromethyl)-1H-pyrazole-4-carboxamide]: the IC50 was not above 2000 nM.

Regarding `Cc1cnc(-n2cc(C(=O)NCC3(c4ccc(C(F)(F)F)cc4)CCCCC3)c(C(F)(F)F)n2)nc1N` [Compound 172, 1-(4-amino-5-methylpyrimidin-2-yl)-3-(trifluoromethyl)-N-({1-[4-(trifluoromethyl)phenyl]cyclohexyl}methyl)-1H-pyrazole-4-carboxamide], the half-maximal inhibitory concentration (IC50) was not above 2000 nM.

As to `Cc1nn(-c2nccc(N)n2)cc1C(=O)NCC(CC(C)C)c1ccc(C(F)(F)F)cc1` (stereo not shown) [Compound 173, 1-(4-aminopyrimidin-2-yl)-3-methyl-N-{4-methyl-2-[4-(trifluoromethyl)phenyl]pentyl}-1H-pyrazole-4-carboxamide], the IC50 is not above 2000 nM.

On to `Cc1nn(-c2cnccn2)cc1C(=O)NCC(CC(C)C)c1ccc(C(F)(F)F)cc1` (stereo not shown) [Compound 174, 3-methyl-N-{4-methyl-2-[4-(trifluoromethyl)phenyl]pentyl}-1-pyrazin-2-yl-1H-pyrazole-4-carboxamide], for which the concentration for half-maximal inhibition (IC50) was not above 2000 nM.

Take `Cc1nn(-c2nccc(N)n2)cc1C(=O)NCC1(c2ccc(C(F)(F)F)cc2)CCCCC1` [Compound 175, 1-(4-aminopyrimidin-2-yl)-3-methyl-N-({1-[4-(trifluoromethyl)phenyl]cyclohexyl]methyl)-1H-pyrazole-4-carboxamide]: the IC50 was not above 2000 nM.

On to `Cc1cnc(-n2cc(C(=O)NCC(CC(C)C)c3ccc(C(F)(F)F)cc3)c(C(C)(C)C)n2)nc1N` (stereo not shown) [Compound 176, 1-(4-amino-5-methylpyrimidin-2-yl)-3-tert-butyl-N-{4-methyl-2-[4-(trifluoromethyl)phenyl]pentyl}-1H-pyrazole-4-carboxamide], for which the IC50 is not above 2000 nM.

For `Cc1cnc(-n2cc(C(=O)NCC3(c4ccc(C(F)(F)F)cc4)CCCCC3)c(C(C)(C)C)n2)nc1N` [Compound 177, 1-(4-amino-5-methylpyrimidin-2-yl)-3-tert-butyl-N-({1-[4-(trifluoromethyl)phenyl]cyclohexyl]methyl)-1H-pyrazole-4-carboxamide], the IC50 was not above 2000 nM.

Take `Cc1nn(-c2ncccn2)cc1C(=O)NCC(CC(C)C)c1ccc(C(F)(F)F)cc1` (stereo not shown) [Compound 178, 3-methyl-N-{4-methyl-2-[4-(trifluoromethyl)phenyl]pentyl}-1-pyrimidin-2-yl-1H-pyrazole-4-carboxamide]: the half-maximal inhibitory concentration (IC50) is not above 2000 nM.

Regarding `Cc1nn(-c2nccnc2N)cc1C(=O)NCC(CC(C)C)c1ccc(C(F)(F)F)cc1` (stereo not shown) [Compound 179, 1-(3-aminopyrazin-2-yl)-3-methyl-N-{4-methyl-2-[4-(trifluoromethyl)phenyl]pentyl}-1H-pyrazole-4-carboxamide], the IC50 was not above 2000 nM.

With `Cc1nn(-c2cncc(N)n2)cc1C(=O)NCC(CC(C)C)c1ccc(C(F)(F)F)cc1` (stereo not shown) [Compound 180, 1-(6-aminopyrazin-2-yl)-3-methyl-N-{4-methyl-2-[4-(trifluoromethyl)phenyl]pentyl}-1H-pyrazole-4-carboxamide], the IC50 was not above 2000 nM.

Consider `Cc1nn(-c2ncccn2)cc1C(=O)NCC1(c2ccc(C(F)(F)F)cc2)CCCCC1` [Compound 181, 3-methyl-1-pyrimidin-2-yl-N-({1-[4-(trifluoromethyl)phenyl]cyclohexyl]methyl)-1H-pyrazole-4-carboxamide], for which the 50% inhibitory concentration (IC50) is not above 2000 nM.

On to `Cc1nn(-c2nccnc2N)cc1C(=O)NCC1(c2ccc(C(F)(F)F)cc2)CCCCC1` [Compound 182, 1-(3-aminopyrazin-2-yl)-3-methyl-N-({1-[4-(trifluoromethyl)phenyl]cyclohexyl}methyl)-1H-pyrazole-4-carboxamide], for which the concentration for half-maximal inhibition (IC50) is not above 2000 nM.

Turning to `Cc1nn(-c2cncc(N)n2)cc1C(=O)NCC1(c2ccc(C(F)(F)F)cc2)CCCCC1` [Compound 183, 1-(6-aminopyrazin-2-yl)-3-methyl-N-({1-[4-(trifluoromethyl)phenyl]cyclohexyl}methyl)-1H-pyrazole-4-carboxamide], the IC50 is not above 2000 nM.

Regarding `Cc1nn(-c2cnccn2)cc1C(=O)NCC1(c2ccc(C(F)(F)F)cc2)CCCCC1` [Compound 184, 3-methyl-1-pyrazin-2-yl-N-({1-[4-(trifluoromethyl)phenyl]cyclohexyl}methyl)-1H-pyrazole-4-carboxamide], the IC50 is not above 2000 nM.

Turning to `COc1ccnc(-n2cc(C(=O)NCC3(c4cccnc4)CCCCC3)c(C(F)(F)F)n2)n1` [Compound 185, 1-(4-methoxypyrimidin-2-yl)-N-[(1-pyridin-3-ylcyclohexyl)methyl]-3-(trifluoromethyl)-1H-pyrazole-4-carboxamide], the half-inhibitory concentration (IC50) is not above 2000 nM.

In the case of `Cc1nccnc1-n1cc(C(=O)NCC2(c3cccnc3)CCCCC2)c(C(F)(F)F)n1` [Compound 186, 1-(3-methylpyrazin-2-yl)-N-[(1-pyridin-3-ylcyclohexyl)methyl]-3-(trifluoromethyl)-1H-pyrazole-4-carboxamide], the half-maximal inhibitory concentration (IC50) is not above 2000 nM.

As to `Cc1cncc(-n2cc(C(=O)NCC3(c4cccnc4)CCCCC3)c(C(F)(F)F)n2)n1` [Compound 187, 1-(6-methylpyrazin-2-yl)-N-[(1-pyridin-3-ylcyclohexyl)methyl]-3-(trifluoromethyl)-1H-pyrazole-4-carboxamide], the 50% inhibitory concentration (IC50) is not above 2000 nM.

On to `CCc1nccnc1-n1cc(C(=O)NCC2(c3cccnc3)CCCCC2)c(C(F)(F)F)n1` [Compound 188, 1-(3-ethylpyrazin-2-yl)-N-[(1-pyridin-3-ylcyclohexyl)methyl]-3-(trifluoromethyl)-1H-pyrazole-4-carboxamide], for which the IC50 was not above 2000 nM.

For the compound `Cc1cnc(-n2cc(C(=O)NCC3(c4ccc(F)cc4)CCCCC3)c(C(F)(F)F)n2)nc1N` [Compound 190, 1-(4-amino-5-methylpyrimidin-2-yl)-N-{[1-(4-fluorophenyl)cyclohexyl]methyl}-3-(trifluoromethyl)-1H-pyrazole-4-carboxamide], the concentration for half-maximal inhibition (IC50) is not above 2000 nM.

As to `COc1cnc(-n2cc(C(=O)NCC3(c4cccnc4)CCCCC3)c(C(F)(F)F)n2)nc1` [Compound 191, 1-(5-methoxypyrimidin-2-yl)-N-[(1-pyridin-3-ylcyclohexyl)methyl]-3-(trifluoromethyl)-1H-pyrazole-4-carboxamide], the IC50 was not above 2000 nM.

For `O=C(NCC1(c2cccnc2)CCCCC1)c1cn(-c2ncc(Cl)cn2)nc1C(F)(F)F` [Compound 192, 1-(5-chloropyrimidin-2-yl)-N-[(1-pyridin-3-ylcyclohexyl)methyl]-3-(trifluoromethyl)-1H-pyrazole-4-carboxamide], the 50% inhibitory concentration (IC50) was not above 2000 nM.

With `O=C(NCCC12CC3CC(CC(C3)C1)C2)c1cn(-c2ncccn2)nc1C(F)(F)F` [Compound 193, N-(2-adamantan-1-ylethyl)-1-pyrimidin-2-yl-3-(trifluoromethyl)-1H-pyrazole-4-carboxamide], the half-inhibitory concentration (IC50) is not above 2000 nM.

In the case of `CC1(C)C2CC[C@@H](CNC(=O)c3cn(-c4ncccn4)nc3C(F)(F)F)C1C2` (stereo partly drawn) [Compound 194, N-{[(2R)-6,6-dimethylbicyclo[3.1.1]hept-2-yl]methyl}-1-pyrimidin-2-yl-3-(trifluoromethyl)-1H-pyrazole-4-carboxamide], the IC50 was not above 2000 nM.

In the case of `O=C(NCC1(c2ccc(Cl)cc2)CCCCC1)c1cn(-c2ncccn2)nc1C(F)(F)F` [Compound 195, N-{[1-(4-chlorophenyl)cyclohexyl]methyl}-1-pyrimidin-2-yl-3-(trifluoromethyl)-1H-pyrazole-4-carboxamide], the IC50 was not above 2000 nM.
